Measured values reported in the supplement of paper PMC10307832.

Legend:
Assay in all cases: relative viability (nuclei count vs DMSO), 5 days (fraction); higher = more cells survive
Bromopyruvate + OSI-027 = compound: C(C(=O)C(=O)O)Br [Bromopyruvate] + COc1cccc2cc(-c3nc([C@H]4CC[C@H](C(=O)O)CC4)n4ncnc(N)c34)[nH]c12 [OSI-027] (partner 0.5 µM)
Method in brief: (§1)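 Five library-drug doses in √10 steps were combined with a fixed anchor-drug dose, or a single drug was given alone, by pin tool to lung cancer cell lines in 1536-well plates the day after seeding. Nuclei were stained and counted after 5 days. Relative viability is the nuclei count in treated wells over that in vehicle wells, taken as the median of duplicate plates.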

Bicalutamide + Lapatinib = compound: CC(O)(CS(=O)(=O)c1ccc(F)cc1)C(=O)Nc1ccc(C#N)c(C(F)(F)F)c1 [Bicalutamide] + CS(=O)(=O)CCNCc1ccc(-c2ccc3ncnc(Nc4ccc(OCc5cccc(F)c5)c(Cl)c4)c3c2)o1 [Lapatinib] (partner 2 µM)
Method in brief: as §1

Bicalutamide + Dasatinib = compound: CC(O)(CS(=O)(=O)c1ccc(F)cc1)C(=O)Nc1ccc(C#N)c(C(F)(F)F)c1 [Bicalutamide] + Cc1nc(Nc2ncc(C(=O)Nc3c(C)cccc3Cl)s2)cc(N2CCN(CCO)CC2)n1 [Dasatinib] (partner 0.075 µM)
Method in brief: as §1

[1] = compound: C(C(=O)C(=O)O)Br [Bromopyruvate] + CS(=O)(=O)N1CCN(Cc2cc3nc(-c4cccc5[nH]ncc45)nc(N4CCOCC4)c3s2)CC1 [Pictilisib] (partner 1 µM)
Method in brief: as §1

Row | Cell Line | relative viability (Bromopyruvate + OSI-027; first compound 1 µM) | relative viability (Bromopyruvate + OSI-027; first compound 3.162 µM) | relative viability (Bromopyruvate + OSI-027; first compound 10 µM) | relative viability (Bromopyruvate + OSI-027; first compound 31.62 µM) | relative viability (Bromopyruvate + OSI-027; first compound 100 µM) | relative viability (Bicalutamide + Lapatinib; first compound 0.08 µM) | relative viability (Bicalutamide + Lapatinib; first compound 0.253 µM) | relative viability (Bicalutamide + Lapatinib; first compound 0.8 µM) | relative viability (Bicalutamide + Lapatinib; first compound 2.53 µM) | relative viability (Bicalutamide + Dasatinib; first compound 0.08 µM) | relative viability (Bicalutamide + Dasatinib; first compound 0.253 µM) | relative viability (Bicalutamide + Dasatinib; first compound 0.8 µM) | relative viability (Bicalutamide + Dasatinib; first compound 2.53 µM) | relative viability ([1]; first compound 1 µM) | relative viability ([1]; first compound 3.162 µM) | relative viability ([1]; first compound 10 µM) | relative viability ([1]; first compound 31.62 µM) | relative viability ([1]; first compound 100 µM)
1 | NCI-H1793 | 0.329 | 0.285 | 0.249 | 0.282 | 0.381 | 0.637 | 0.645 | 1.04 | 0.832 | 0.369 | 0.349 | 0.486 | 0.377 | 0.391 | 0.32 | 0.305 | 0.272 | 0.237
2 | NCI-H596 | 0.781 | 0.711 | 0.84 | 0.684 | 0.781 | 1.02 | 1.17 | 1.16 | 1.18 | 0.576 | 0.599 | 0.798 | 0.598 | 0.431 | 0.396 | 0.419 | 0.419 | 0.423
3 | NCI-H520 | 0.243 | 0.259 | 0.25 | 0.23 | 0.289 | 0.817 | 0.674 | 1.01 | 0.779 | 0.192 | 0.195 | 0.185 | 0.137 | 0.264 | 0.34 | 0.337 | 0.293 | 0.317
4 | EKVX | 0.746 | 0.691 | 0.827 | 0.666 | 0.761 | 0.194 | 0.247 | 0.192 | 0.207 | 0.619 | 0.491 | 0.662 | 0.66 | 0.412 | 0.437 | 0.444 | 0.458 | 0.472
5 | NCI-H358 | 0.813 | 0.758 | 0.956 | 0.769 | 0.797 | 0.471 | 0.475 | 0.524 | 0.51 | 0.154 | 0.14 | 0.16 | 0.145 | 0.342 | 0.397 | 0.343 | 0.326 | 0.328
6 | EPLC-272H | 0.245 | 0.244 | 0.359 | 0.251 | 0.301 | 0.788 | 0.771 | 0.92 | 0.875 | 0.375 | 0.336 | 0.454 | 0.321 | 0.32 | 0.363 | 0.266 | 0.323 | 0.296
7 | NCI-H1563 | 0.747 | 0.75 | 0.758 | 0.77 | 0.763 | 1.19 | 0.853 | 0.984 | 0.776 | 0.449 | 0.456 | 0.512 | 0.409 | 0.657 | 0.657 | 0.535 | 0.626 | 0.697
8 | NCI-H1395 | 0.679 | 0.672 | 0.669 | 0.591 | 0.637 | 0.858 | 0.956 | 1.29 | 0.869 | 0.406 | 0.404 | 0.414 | 0.353 | 0.556 | 0.561 | 0.568 | 0.629 | 0.615
9 | NCI-H2228 | 0.539 | 0.554 | 0.755 | 0.518 | 0.551 | 0.707 | 1.04 | 1.23 | 1.02 | 0.476 | 0.479 | 0.522 | 0.55 | 0.349 | 0.37 | 0.402 | 0.416 | 0.635
10 | LXF-289 | 0.809 | 0.851 | 0.8 | 0.847 | 0.914 | 0.92 | 0.845 | 0.991 | 0.877 | 0.214 | 0.25 | 0.227 | 0.194 | 0.756 | 0.758 | 0.802 | 0.867 | 0.816
11 | NCI-H2023 | 0.391 | 0.39 | 0.49 | 0.388 | 0.374 | 0.727 | 0.866 | 1.21 | 0.648 | 0.599 | 0.48 | 0.758 | 0.488 | 0.236 | 0.237 | 0.221 | 0.209 | 0.25
12 | NCI-H3122 | 0.914 | 1.13 | 1.27 | 0.964 | 1.06 | 0.983 | 0.962 | 1.04 | 1.04 | 0.922 | 0.791 | 0.938 | 0.889 | 0.553 | 0.664 | 0.879 | 0.554 | 0.567
13 | NCI-H1755 | 0.77 | 0.773 | 0.729 | 0.777 | 0.726 | 1.03 | 1.06 | 1.05 | 0.928 | 0.397 | 0.382 | 0.446 | 0.351 | 0.484 | 0.512 | 0.448 | 0.467 | 0.456
14 | HCC-78 | 0.379 | 0.326 | 0.403 | 0.355 | 0.345 | 0.74 | 0.977 | 0.91 | 0.682 | 0.363 | 0.297 | 0.483 | 0.375 | 0.201 | 0.202 | 0.224 | 0.218 | 0.249
15 | LOU-NH91 | 0.804 | 0.716 | 0.747 | 0.694 | 0.756 | 0.816 | 0.638 | 0.856 | 0.752 | 0.635 | 0.43 | 0.605 | 0.568 | 0.588 | 0.548 | 0.48 | 0.516 | 0.589
16 | NCI-H322M | 0.515 | 0.58 | 0.576 | 0.523 | 0.599 | 0.576 | 0.602 | 0.664 | 0.572 | 0.236 | 0.248 | 0.264 | 0.319 | 0.464 | 0.536 | 0.502 | 0.529 | 0.56
17 | HCC-827 | 0.779 | 0.799 | 0.803 | 0.778 | 0.805 | 0.171 | 0.178 | 0.171 | 0.193 | 0.328 | 0.19 | 0.315 | 0.293 | 1.08 | 0.909 | 1.14 | 1.17 | 0.849
18 | SW 1573 | 0.751 | 0.674 | 0.73 | 0.475 | 0.0547 | 1.03 | 0.909 | 1.3 | 1.11 | 0.525 |  | 0.683 | 0.275 | 0.463 | 0.438 | 0.46 | 0.521 | 0.303
